Results on three molecules are retold here after patent publication US9040240B2, “Arsenic assay using ELISA” (UNIVERSITE DE LORRAINE, priority 2011, dated 2015).

Data set [1] has as its target T1, ArsRFlagN protein (SEQ ID NO. 9) bound to Opars1 DNA fragment (Escherichia coli, UniProt P37309).
T1 construct: made in house; host or cells: Escherichia coli M15[pREP4] with plasmid pQEarsRFlagN (pQE70)
T1 sequence (P37309 with tags, fused parts or gaps): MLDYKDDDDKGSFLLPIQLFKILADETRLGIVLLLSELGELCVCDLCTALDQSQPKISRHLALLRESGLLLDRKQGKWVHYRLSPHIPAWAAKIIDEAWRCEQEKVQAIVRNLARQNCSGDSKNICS
Description: ELISA arsenic assay: ArsRFlagN protein remaining bound to Opars1 DNA fragment on streptavidin microplate, luminescence (CDP*). It counts as binding, Escherichia coli K12 strain MG1655. Particulars: 60 min 25° C. As for the experimental part: Different dilutions of arsenic solution to be assayed are added (4), the arsenic binds to the ArsR protein (5) that is separated from its site. These proteins are eliminated by washing. Only the ArsR proteins that have not bound arsenic remain attached to the DNA (6).
A specific antibody of the Flag sequence is added (7). That antibody binds the Flag sequence of the ArsR protein bound to the DNA. The antibody is coupled with an enzyme, alkaline phosphatase for example. Any antibodies not bound are eliminated by washing.
A substrate of the enzyme is added in the wells. Light is emitted when the substrate is cleaved by the enzyme (8). […] The quantity of arsenic contained in the sample is obtained by comparing the results with a standard curve.
In this example, the used DNA fragment containing the binding site of the ArsR protein is composed of 254 base pairs (SEQ ID NO. 1, called “Opars1” herein). Opars1 sequence has been obtained by PCR (DNA polymerase chain reaction) amplification using the primers Opars1L (SEQ ID NO. 2) and Opars1R (SEQ ID NO. 3). The chromosomal DNA of the Escherichia coli K12 bacteria strain MG1655 (ATCC 47076) was used as a template for the PCR amplification. Biotin was added on the nucleotide at position 5′ during synthesis of the Opars1L primer. Biotinylated Opars1 sequences, that is to say sequences with a biotin in position 5′, were thus obtained.
A “NUNC Immobilizer (trademark) Streptavidin” microplate (Nunc Streptavidin Microplate, Dominique Dutscher (ref. 056212), Brumath, France) with 96 wells with a useful volume of 100 μl each and whose surface is functionalized with streptavidin, was used. The wells of this microplate were washed three times using 300 μl of PBST solution.
A solution containing Opars1 DNA fragments was diluted in PBS solution to obtain a DNA concentration of 0.2 μM. 100 μl of that solution were placed in each well of the “NUNC Immobilizer (trademark) Streptavidin” microplate. The microplate was incubated for 60 minutes at 25° C., to enable binding of the DNA in the wells.
(§1) The unbound DNA was eliminated by three successive washes using 300 μl of PBST per well.
The ArsR protein of sequence SEQ ID NO. 4 corresponds to the protein that regulates the Ars operon of Escherichia coli K12 strain MG1655. The arsR gene of sequence SEQ ID NO. 5 coding that protein was amplified from the chromosomal DNA of that strain using the primers arsRR (SEQ ID NO. 6) and arsRL (SEQ ID NO. 7), and cloned in expression vector pQE70 (Qiagen) according to the protocol described in the document “The QiaExpressionist: A handbook for high-level expression and purification of 6×His-tagged proteins. June 2003. Fifth ed., Qiagen” [12]. A Flag sequence (SEQ ID NO. 10) was inserted in the N-terminal region of the ArsR protein and named “ArsRFlagN” (SEQ ID NO. 9). The Flag sequence is recognized by anti-Flag antibodies (Ref. A9469, Sigma Aldrich, Saint-Quentin Fallavier, France). This addition will allow detecting and assaying the ArsR protein more efficiently.
The 200 μg of ArsRFlagN proteins produced were diluted to 1/100 in PBST buffer. 100 μl of that solution were added in each of the assay wells. The microplate was incubated for 60 minutes at 25° C., to enable the attachment of the ArsRFlagN proteins on the DNA in the wells. The amount of ArsRFlagN proteins added per well was estimated at about 0.4 μg.
(§2) The unbound proteins were eliminated by three successive washes using 300 μl of PBST per well.
A DNA fragment containing the ArsR protein binding site was attached to a support in the same way as that set out in example 2 above.
A solution containing the ArsR protein was added according to the protocol presented in example 3 above, to enable the protein to bind with the DNA.
6 dilutions of arsenic solution, at 0.375 μg/L, 0.750 μg/L, 1.875 μg/L, 7.500 μg/L, 18.750 μg/L and 37.500 μg/L respectively, were prepared in PBS to provide a standard range. […]

Data set [2] deals with T2, ArsRFlagN-6His protein (SEQ ID NO. 22) bound to Pars2Lbio/Pars2R DNA fragment (Escherichia coli, UniProt P37309).
T2 construct: made in house; host or cells: Escherichia coli C43(DE3) pLysS, vector pET28b(+)
T2 sequence (P37309 with tags, fused parts or gaps): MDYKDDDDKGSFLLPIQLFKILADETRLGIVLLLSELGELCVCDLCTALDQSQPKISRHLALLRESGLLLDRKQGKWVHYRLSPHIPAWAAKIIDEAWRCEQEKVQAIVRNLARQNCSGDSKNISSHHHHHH
Put plainly: ELISA arsenic assay: ArsRFlagN-6His protein remaining bound to Pars2Lbio/Pars2R DNA fragment on streptavidin microplate, luminescence (CDP*). It counts as binding. As to conditions: 60 min 25° C. As for the experimental part:
In this example, the used DNA fragment containing the binding site of the ArsRFlagN-6His protein (SEQ ID NO. 22) is composed of a fragment of 41 biotinylated bases in position 5′ (SEQ ID NO. 25, named “Pars2Lbio”) hybridized to a further DNA fragment with 33 bases (SEQ ID NO 26, named “Pars2R”). The sequences Pars2Lbio and Pars2R were obtained by chemical synthesis (Eurofins MWG Operon, Ebersberg, Germany).
The biotinylated oligonucleotide (“Pars2Lbio”) was used at a concentration of 1 to 10 nM. The complementary oligonucleotide (“Pars2R”) was added in excess to enhance formation of the double strand. It was diluted in PBST buffer (between 1 and 10 nM, ideally 5, for the biotinylated oligonucleotide; between 4 and 40 nM, ideally 20, for the complementary oligonucleotide). The mixture was heated for one minute at 65° C. to eliminate any secondary structures that could have been formed by each oligonucleotide.
A “NUNC Immobilizer (trademark) Streptavidin” microplate (Nunc Streptavidin Microplate, Dominique Dutscher (ref. 056212), Brumath, France) with 96 wells with a useful volume of 100 μl each and whose surface is functionalized with streptavidin, was used. The wells in the microplate were washed three times using of 300 μl of PBST solution.
The DNA solution was then distributed in the microplate wells (100 μl per well). The microplate was placed at 25° C. for one hour to enable binding of the DNA fragments thanks to the biotin-streptavidin affinity.
as §1
100 μl of PBSTLE solution were added in the microplate wells. The microplate was incubated for 60 minutes at 25° C. to enable non-specific binding of the milk proteins on the bottom and the walls of the well. This step limits non-specific binding of the ArsRFlagN-6His protein (SEQ ID NO. 22) and the conjugated anti-Flag antibodies (Ref. A9469, Sigma Aldrich, Saint-Quentin Fallavier, France). The unbound proteins were eliminated by three successive washes of the well using 300 μl of PBST buffer.
A solution of ArsRFlagN-6His protein (SEQ ID NO. 22) at 1 μg/ml was prepared in PBST buffer. 100 μl of this solution were added in each of the assay wells. The microplate was incubated for 60 minutes at 25° C., to enable the ArsRFlagN-6His proteins to bind with the DNA in the wells.
as §2
The DNA fragment defined in example 6 and containing the ArsR protein binding site was bound to a support in the same way as presented in example 6 above.
A solution containing the ArsRFlagN-6His protein (SEQ ID NO. 22) was added according to the protocol presented in example 7 above, to enable the protein to bind with the DNA.
5 dilutions of arsenic solution, at 0 μg/L, 2 μg/L, 3 μg/L, 4 μg/L, and 5 μg/L respectively, were prepared in PBS to provide a control sample range. 100 μl of each of these dilutions were added respectively in a microplate well.
The microplate was incubated for 60 minutes at 25° C., to enable the arsenic to bind with the ArsRFlagN-6His proteins (SEQ ID NO. 22).
The unbound ArsRFlagN-6His proteins (SEQ ID NO. 22) were eliminated by three successive washed using 300 μl of PBST per well.
100 μl of a solution of anti-Flag antibody (Ref. A9469, Sigma Aldrich, Saint-Quentin Fallavier, France), conjugated with alkaline phosphatase, were added in each wells. The antibody was previously diluted in PBST in compliance with the supplier's recommendations (dilution factor 1/500). The microplate was incubated for 60 minutes at 25° C. to enable the antibody to bind with the ArsRFlagN-6His proteins.
The unbound anti-Flag antibodies were eliminated by three successive washes using 300 μl of PBST per well.
A CDP* solution at 0.25 mM was prepared in buffer 1. 100 μl of CDP* solution were placed in the different assay wells. The light emitted was immediately measured using a luminometer (LumiStar, BMG Lab Technologies).
(ELISA stands for enzyme-linked immunosorbent assay.)

The subject of a further data set is human. Particulars: ingestion; cited from earlier work.
Data set [3] can be described thus: Storage stability of purified ArsRFlagN-6His protein. It counts as physicochemical. As for the experimental part: The ArsRFlagN-6His protein (SEQ ID NO. 22) was purified by affinity chromatography (IMAC). An Ni-NTA column was balanced with PBS buffer+10 mM of imidazole. The clear lysate was deposited on the column. The buffer was eluted by gravity. The column was firstly washed using PBS buffer+10 mM of imidazole (10 column volumes) and secondly using PBS buffer+20 mM of imidazole. The ArsR protein was eluted using an imidazole gradient in PBS buffer (PBS buffer with increasing concentrations of imidazole: 30 to 400 mM). The fractions collected were analysed (SDS-PAGE gel). Fractions that contained the greatest quantity of protein were stored at 4° C. (3 ml of PBS buffer, imidazole 300 mM, pH 7.5). ArsR protein concentration was of 1 mg/ml. The protein is stable for 15 days at 4° C. It can be stored for several weeks at lower temperatures (−20 and −80° C.) in the presence of a cryoprotector (glycerol at 50%, volume/volume).

Turning to arsenite [AsIII], the “Luminescence value (L)” value in data set [1] (AsIII 0.005 μM (0.375 μg/L)) is reported as 6,426; in data set [1] (AsIII 0.01 μM (0.750 μg/L)), 5,808; in data set [1] (AsIII 0.025 μM (1.875 μg/L)) it was 5,023; in data set [1] (AsIII 0.100 μM (7.500 μg/L)), 4,422; in data set [1] (AsIII 0.250 μM (18.750 μg/L)), 3,776; in data set [1] (AsIII 0.500 μM (37.500 μg/L)), 2,831. In addition, the “Luminescence value (L)” value in data set [2] (AsIII 0.027 μM (2 μg/L)) is listed as 4,710; in data set [2] (AsIII 0.040 μM (3 μg/L)), 4,457; in data set [2] (AsIII 0.053 μM (4 μg/L)) it was 4,061; in data set [2] (AsIII 0.067 μM (5 μg/L)), 3,906. Also, the logL in data set [1] (AsIII 0.005 μM (0.375 μg/L)) came to 3.81; in data set [1] (AsIII 0.01 μM (0.750 μg/L)), 3.76; in data set [1] (AsIII 0.025 μM (1.875 μg/L)), 3.70; in data set [1] (AsIII 0.100 μM (7.500 μg/L)), 3.65; in data set [1] (AsIII 0.250 μM (18.750 μg/L)), 3.58; in data set [1] (AsIII 0.500 μM (37.500 μg/L)), 3.45. The logL in data set [2] (AsIII 0.027 μM (2 μg/L)) was determined as 3.6730; in data set [2] (AsIII 0.040 μM (3 μg/L)), 3.6490; in data set [2] (AsIII 0.053 μM (4 μg/L)) it was 3.6086; in data set [2] (AsIII 0.067 μM (5 μg/L)) it was 3.5917.
Take `[AsH3]` [arsenic]: the “amount of arsenic ingested causing acute intoxication” value in the data set on human is 1 to 2 mg/kg/day.

B1: ArsRFlagN-6His protein: recombinant E. coli ArsR regulator protein with N-terminal Flag peptide and polyhistidine tail (protein)
chain: T2 sequence (P37309 with tags, fused parts or gaps)
modifications: ArsRFlagN-6His protein
notes: recombinant E. coli ArsR regulator protein with N-terminal Flag peptide and polyhistidine tail
As for B1, the “time the protein is stable” value in data set [3] (4° C., PBS buffer, imidazole 300 mM, pH 7.5, 1 mg/ml) is 15 days. Further, the “time the protein can be stored” value in data set [3] (−20 and −80° C., in the presence of glycerol at 50% (volume/volume)) is on record as “several weeks”.
